Laboratory results from PMC5218480 (PLoS ONE, 2017).

System: MV-4-11 cells
Experiment: Gene expression microarray analysis (Affymetrix PrimeView) and GSEA
Format: cell-based, human
Design: RFU PODN (11730768_x_at) / Fold change /veh PODN (11730768_x_at) / RFU LINC00158 (11744669_a_at) / Fold change /veh LINC00158 (11744669_a_at) / RFU DUSP10 (11751237_a_at) / Fold change /veh DUSP10 (11751237_a_at) / RFU ID3 (11757404_x_at) / Fold change /veh ID3 (11757404_x_at) / RFU PLEKHG5 (11737974_s_at) / Fold change /veh PLEKHG5 (11737974_s_at) / RFU LRRC4B (11730491_at) / Fold change /veh LRRC4B (11730491_at) / RFU GIMAP4 (11747438_a_at) / Fold change /veh GIMAP4 (11747438_a_at) / RFU KRT8 (11758183_x_at) / Fold change /veh KRT8 (11758183_x_at) / RFU CNN1 (11734310_a_at) / Fold change /veh CNN1 (11734310_a_at) / RFU VPS37D (11726825_at) / Fold change /veh VPS37D (11726825_at) / RFU C10orf10 (11716522_x_at) / Fold change /veh C10orf10 (11716522_x_at) / RFU KIR2DL2 /// KIR2DL4 /// KIR2DL5A /// KIR2DL5B /// KIR2DS1 /// KIR2DS2 /// KIR2DS3 /// KIR2DS4 /// KIR3DL3 /// KIR3DL3 /// KIR3DS1 (11738374_at) / Fold change /veh KIR2DL2 /// KIR2DL4 /// KIR2DL5A /// KIR2DL5B /// KIR2DS1 /// KIR2DS2 /// KIR2DS3 /// KIR2DS4 /// KIR3DL3 /// KIR3DL3 /// KIR3DS1 (11738374_at) / RFU C1QL1 (11718748_at) / Fold change /veh C1QL1 (11718748_at) / RFU TMPRSS4 (11747572_a_at) / Fold change /veh TMPRSS4 (11747572_a_at) / RFU HAMP (11756126_x_at) / Fold change /veh HAMP (11756126_x_at) / RFU RNFT2 (11725882_a_at) / Fold change /veh RNFT2 (11725882_a_at) / RFU NR4A2 (11747474_a_at) / Fold change /veh NR4A2 (11747474_a_at) / RFU ABCC12 (11746883_a_at) / Fold change /veh ABCC12 (11746883_a_at) / RFU TMEM136 (11760407_x_at) / Fold change /veh TMEM136 (11760407_x_at) / RFU CLDN22 /// WWC2 (11732394_at) / Fold change /veh CLDN22 /// WWC2 (11732394_at) / RFU HLA-DPB1 (11760878_x_at) / Fold change /veh HLA-DPB1 (11760878_x_at) / RFU SPINT1 (11716480_a_at) / Fold change /veh SPINT1 (11716480_a_at) / RFU GAP43 (11754022_s_at) / Fold change /veh GAP43 (11754022_s_at) / RFU A4GNT (11735810_at) / Fold change /veh A4GNT (11735810_at) / RFU PRB3 (11715151_x_at) / Fold change /veh PRB3 (11715151_x_at) / RFU TUBB4B (11761932_at) / Fold change /veh TUBB4B (11761932_at) / RFU CAPN14 (11732068_a_at) / Fold change /veh CAPN14 (11732068_a_at) / RFU TMCC2 (11721928_a_at) / Fold change /veh TMCC2 (11721928_a_at) / RFU IRGQ (11745062_a_at) / Fold change /veh IRGQ (11745062_a_at) / RFU FAM174B (11720279_a_at) / Fold change /veh FAM174B (11720279_a_at) / RFU TMPRSS4 (11748680_a_at) / Fold change /veh TMPRSS4 (11748680_a_at) / RFU FAM212B (11763350_a_at) / Fold change /veh FAM212B (11763350_a_at) / RFU PLEKHG5 (11743358_a_at) / Fold change /veh PLEKHG5 (11743358_a_at) / RFU ZSCAN30 (11745921_a_at) / Fold change /veh ZSCAN30 (11745921_a_at) / RFU CMKLR1 (11741424_a_at) / Fold change /veh CMKLR1 (11741424_a_at) / RFU LOC101060620 /// MAPK8IP1 (11723275_at) / Fold change /veh LOC101060620 /// MAPK8IP1 (11723275_at) / RFU SPTSSB (11747773_x_at) / Fold change /veh SPTSSB (11747773_x_at) / RFU PRSS12 (11739890_at) / Fold change /veh PRSS12 (11739890_at) / RFU BIN1 (11741810_x_at) / Fold change /veh BIN1 (11741810_x_at) / RFU WNT11 (11732464_a_at) / Fold change /veh WNT11 (11732464_a_at) / RFU C10orf10 (11716521_a_at) / Fold change /veh C10orf10 (11716521_a_at) / RFU C5orf56 (11738089_at) / Fold change /veh C5orf56 (11738089_at) / RFU CYB561 (11721691_x_at) / Fold change /veh CYB561 (11721691_x_at) / RFU ANKRD19P (11752326_a_at) / Fold change /veh ANKRD19P (11752326_a_at) / RFU OR2T12 /// OR2T33 /// OR2T8 (11738714_s_at) / Fold change /veh OR2T12 /// OR2T33 /// OR2T8 (11738714_s_at) / RFU VCAN (11748164_a_at) / Fold change /veh VCAN (11748164_a_at) / RFU JSRP1 (11732532_at) / Fold change /veh JSRP1 (11732532_at) / RFU KRTAP10-11 (11738290_x_at) / Fold change /veh KRTAP10-11 (11738290_x_at) / RFU MYO3A (11730013_a_at) / Fold change /veh MYO3A (11730013_a_at) / RFU EBF3 (11725865_a_at) / Fold change /veh EBF3 (11725865_a_at) / RFU CAMK2N1 (11719241_x_at) / Fold change /veh CAMK2N1 (11719241_x_at) / RFU C5orf56 (11738088_a_at) / Fold change /veh C5orf56 (11738088_a_at) / RFU OLFML3 (11715873_a_at) / Fold change /veh OLFML3 (11715873_a_at) / RFU LOC100653217 /// NTM (11731650_a_at) / Fold change /veh LOC100653217 /// NTM (11731650_a_at) / RFU MAPK11 (11762145_a_at) / Fold change /veh MAPK11 (11762145_a_at) / RFU FIZ1 (11724087_x_at) / Fold change /veh FIZ1 (11724087_x_at) / RFU OASL (11726364_x_at) / Fold change /veh OASL (11726364_x_at) / RFU SOX15 (11748057_x_at) / Fold change /veh SOX15 (11748057_x_at) / RFU CD79A (11719716_a_at) / Fold change /veh CD79A (11719716_a_at) / RFU HIST1H1D (11736915_at) / Fold change /veh HIST1H1D (11736915_at) / RFU CASKIN2 (11723855_a_at) / Fold change /veh CASKIN2 (11723855_a_at) / RFU LOC730098 (11760151_x_at) / Fold change /veh LOC730098 (11760151_x_at) / RFU OR4N2 (11742367_at) / Fold change /veh OR4N2 (11742367_at) / RFU PRRT2 (11749266_a_at) / Fold change /veh PRRT2 (11749266_a_at) / RFU SNX32 (11753110_a_at) / Fold change /veh SNX32 (11753110_a_at) / RFU CDHR5 (11726645_a_at) / Fold change /veh CDHR5 (11726645_a_at) / RFU RCAN1 (11760418_a_at) / Fold change /veh RCAN1 (11760418_a_at) / RFU FAM167A (11723789_a_at) / Fold change /veh FAM167A (11723789_a_at) / RFU FAM26E (11764081_at) / Fold change /veh FAM26E (11764081_at) / RFU ISYNA1 (11749810_s_at) / Fold change /veh ISYNA1 (11749810_s_at) / RFU ACY1 (11761880_at) / Fold change /veh ACY1 (11761880_at) / RFU 11764098_at / Fold change /veh 11764098_at / RFU SAMD14 (11745864_x_at) / Fold change /veh SAMD14 (11745864_x_at) / RFU NPB (11741838_a_at) / Fold change /veh NPB (11741838_a_at) / RFU TMPRSS6 (11731388_a_at) / Fold change /veh TMPRSS6 (11731388_a_at) / RFU KRTAP10-2 (11738614_at) / Fold change /veh KRTAP10-2 (11738614_at) / RFU ARHGAP8 /// PRR5-ARHGAP8 (11727945_x_at) / Fold change /veh ARHGAP8 /// PRR5-ARHGAP8 (11727945_x_at) / RFU KRTAP5-7 /// NADSYN1 (11734609_at) / Fold change /veh KRTAP5-7 /// NADSYN1 (11734609_at) / RFU RASL12 (11751679_a_at) / Fold change /veh RASL12 (11751679_a_at) / RFU CDKN2B (11736163_a_at) / Fold change /veh CDKN2B (11736163_a_at) / RFU PRF1 (11729649_at) / Fold change /veh PRF1 (11729649_at) / RFU, ZNF638 /// ZNF638-IT1 / Fold change vs veh, ZNF638 /// ZNF638-IT1 / RFU, PANK3 / Fold change vs veh, PANK3 / RFU, SH3YL1 / Fold change vs veh, SH3YL1 / RFU, ZEB2 / Fold change vs veh, ZEB2 / RFU, NRIP1 / Fold change vs veh, NRIP1 / RFU, PTTG1IP / Fold change vs veh, PTTG1IP / RFU, CAPN2 / Fold change vs veh, CAPN2 / RFU, MED14 / Fold change vs veh, MED14 / RFU, SNORA58 / Fold change vs veh, SNORA58 / RFU, C1orf63 / Fold change vs veh, C1orf63 / RFU, LRRFIP1 / Fold change vs veh, LRRFIP1 / RFU, NDUFAF7 / Fold change vs veh, NDUFAF7 / RFU, SLC12A2 / Fold change vs veh, SLC12A2 / RFU, IBTK / Fold change vs veh, IBTK / RFU, ESF1 / Fold change vs veh, ESF1 / Fold change vs veh, TMEM50B / RFU, TAOK1 / Fold change vs veh, TAOK1 / RFU, ACBD3 / Fold change vs veh, ACBD3 / RFU, TMA16 / Fold change vs veh, TMA16 / RFU, RWDD3 / Fold change vs veh, RWDD3 / RFU, BCAT1 / Fold change vs veh, BCAT1 / RFU, EDEM3 / Fold change vs veh, EDEM3 / RFU, TMEM33 / Fold change vs veh, TMEM33 / RFU, WDR75 / Fold change vs veh, WDR75 / RFU, AHCTF1 / Fold change vs veh, AHCTF1 / RFU, TFRC / Fold change vs veh, TFRC / RFU, ZDHHC17 / Fold change vs veh, ZDHHC17 / RFU, NOM1 / Fold change vs veh, NOM1 / RFU, ARL8B / Fold change vs veh, ARL8B / RFU, ZBTB11 / Fold change vs veh, ZBTB11 / RFU, TAMM41 / Fold change vs veh, TAMM41 / RFU, KIAA1704 /// LOC100996395 / Fold change vs veh, KIAA1704 /// LOC100996395 / RFU, ING1 / Fold change vs veh, ING1 / RFU, TRMT61B / Fold change vs veh, TRMT61B / RFU, FUBP3 / Fold change vs veh, FUBP3 / RFU, TP53 / Fold change vs veh, TP53 / RFU, TNKS2 / Fold change vs veh, TNKS2 / RFU, ZFP14 / Fold change vs veh, ZFP14 / RFU, ACTR2 / Fold change vs veh, ACTR2 / RFU, PPP3R1 / Fold change vs veh, PPP3R1 / RFU, PIK3R1 / Fold change vs veh, PIK3R1 / RFU, HNRNPA1 / Fold change vs veh, HNRNPA1 / RFU, RNF170 / Fold change vs veh, RNF170 / RFU, ZNF28 / Fold change vs veh, ZNF28 / RFU, RNGTT / Fold change vs veh, RNGTT / RFU, OGT / Fold change vs veh, OGT / RFU, BRD1 / Fold change vs veh, BRD1 / RFU, MARS / Fold change vs veh, MARS / RFU, ZNF655 / Fold change vs veh, ZNF655 / RFU, FAHD1 / Fold change vs veh, FAHD1 / RFU, BDP1 / Fold change vs veh, BDP1 / RFU, LRRCC1 / Fold change vs veh, LRRCC1 / RFU, ARID1A / Fold change vs veh, ARID1A / RFU, ZNF146 / Fold change vs veh, ZNF146 / RFU, ZNF330 / Fold change vs veh, ZNF330 / RFU, GPN3 / Fold change vs veh, GPN3 / RFU, C9orf123 / Fold change vs veh, C9orf123 / RFU, N4BP2L2 / Fold change vs veh, N4BP2L2 / RFU, ARFIP1 / Fold change vs veh, ARFIP1 / RFU, FAM179B / Fold change vs veh, FAM179B / RFU, BCL10 / Fold change vs veh, BCL10 / RFU, UHRF1BP1L / Fold change vs veh, UHRF1BP1L / RFU, BET1 / Fold change vs veh, BET1 / RFU, CNOT2 / Fold change vs veh, CNOT2 / RFU, ZNF268 / Fold change vs veh, ZNF268 / Fold change vs veh, ZNF507 / RFU, DGCR2 / Fold change vs veh, DGCR2 / RFU, WDSUB1 / Fold change vs veh, WDSUB1 / Fold change vs veh, HSP90B1 /// MIR3652 / RFU, ADSS / Fold change vs veh, ADSS / RFU, GK / Fold change vs veh, GK / RFU, ZNF148 / Fold change vs veh, ZNF148 / RFU, TAF9 / Fold change vs veh, TAF9 / RFU, SLC1A5 / Fold change vs veh, SLC1A5 / RFU, SLMO2 / Fold change vs veh, SLMO2 / RFU, ABCC4 / Fold change vs veh, ABCC4 / RFU, LOC101060439 /// RAP1B / Fold change vs veh, LOC101060439 /// RAP1B / RFU, RFX7 / Fold change vs veh, RFX7 / RFU, GTPBP10 / Fold change vs veh, GTPBP10 / RFU, CNEP1R1 / Fold change vs veh, CNEP1R1 / RFU, BIVM-ERCC5 /// ERCC5 / Fold change vs veh, BIVM-ERCC5 /// ERCC5 / RFU, ILF3 / Fold change vs veh, ILF3 / RFU 11762660_at / Fold change /veh 11762660_at / RFU VCAN (11757783_s_at) / Fold change /veh VCAN (11757783_s_at) / RFU DDX43 (11728927_at) / Fold change /veh DDX43 (11728927_at) / RFU KRT8 (11758188_x_at) / Fold change /veh KRT8 (11758188_x_at) / RFU NKD1 (11759106_at) / Fold change /veh NKD1 (11759106_at) / RFU SRD5A1 (11742802_a_at) / Fold change /veh SRD5A1 (11742802_a_at) / RFU TPSAB1 /// TPSB2 (11721975_s_at) / Fold change /veh TPSAB1 /// TPSB2 (11721975_s_at) / RFU GSTM3 (11746129_a_at) / Fold change /veh GSTM3 (11746129_a_at) / RFU IL23R (11737362_x_at) / Fold change /veh IL23R (11737362_x_at) / RFU TMEM51 (11727254_a_at) / Fold change /veh TMEM51 (11727254_a_at) / RFU PIWIL2 (11732686_x_at) / Fold change /veh PIWIL2 (11732686_x_at) / RFU ORM1 (11744905_x_at) / Fold change /veh ORM1 (11744905_x_at) / RFU CCDC152 (11743942_at) / Fold change /veh CCDC152 (11743942_at) / RFU ECM1 (11717891_a_at) / Fold change /veh ECM1 (11717891_a_at) / RFU IL23R (11748794_a_at) / Fold change /veh IL23R (11748794_a_at) / RFU TNFAIP8L3 (11732012_x_at) / Fold change /veh TNFAIP8L3 (11732012_x_at) / RFU MBOAT4 (11741988_at) / Fold change /veh MBOAT4 (11741988_at) / RFU 11764193_at / Fold change /veh 11764193_at / RFU TMEM53 (11763286_at) / Fold change /veh TMEM53 (11763286_at) / RFU MAGEB2 (11727129_at) / Fold change /veh MAGEB2 (11727129_at) / RFU TMEM200A (11744735_a_at) / Fold change /veh TMEM200A (11744735_a_at) / RFU CCDC152 (11751479_a_at) / Fold change /veh CCDC152 (11751479_a_at) / RFU FAM211A (11726209_a_at) / Fold change /veh FAM211A (11726209_a_at) / RFU RGS16 (11746705_a_at) / Fold change /veh RGS16 (11746705_a_at) / RFU VCAN (11755009_s_at) / Fold change /veh VCAN (11755009_s_at) / RFU RHOB (11743442_s_at) / Fold change /veh RHOB (11743442_s_at) / RFU RGS16 (11720943_a_at) / Fold change /veh RGS16 (11720943_a_at) / RFU RGS16 (11720944_at) / Fold change /veh RGS16 (11720944_at) / RFU, VPS4B / Fold change vs veh, VPS4B / RFU, CREB1 / Fold change vs veh, CREB1 / RFU, DNAJC13 / Fold change vs veh, DNAJC13 / RFU, GNAQ / Fold change vs veh, GNAQ / RFU, CDK5R1 / Fold change vs veh, CDK5R1 / RFU, ZRANB3 / Fold change vs veh, ZRANB3 / RFU, CUL4A / Fold change vs veh, CUL4A / RFU, CCNY / Fold change vs veh, CCNY / RFU, UFL1 / Fold change vs veh, UFL1 / RFU, COG3 / Fold change vs veh, COG3 / RFU, DIAPH2 / Fold change vs veh, DIAPH2 / RFU, SKA2 / Fold change vs veh, SKA2 / RFU, AFF3 / Fold change vs veh, AFF3 / RFU, LMF1 / Fold change vs veh, LMF1 / RFU, IPO11 / Fold change vs veh, IPO11 / RFU, DFFB / Fold change vs veh, DFFB / RFU, FOXP1 / Fold change vs veh, FOXP1 / RFU, CARD8 / Fold change vs veh, CARD8 / RFU, STRN3 / Fold change vs veh, STRN3 / RFU, ADK / Fold change vs veh, ADK / RFU, RASSF2 / Fold change vs veh, RASSF2 / RFU, WIPF1 / Fold change vs veh, WIPF1 / RFU, LARP1B / Fold change vs veh, LARP1B / RFU, RASA1 / Fold change vs veh, RASA1 / RFU, RB1 / Fold change vs veh, RB1 / RFU, PPFIA1 / Fold change vs veh, PPFIA1 / RFU, MAT2A / Fold change vs veh, MAT2A / RFU, CCT5 / Fold change vs veh, CCT5 / RFU, WDR92 / Fold change vs veh, WDR92 / RFU, CUX1 / Fold change vs veh, CUX1 / RFU, TTC7A / Fold change vs veh, TTC7A / RFU, TMEM135 / Fold change vs veh, TMEM135 / RFU, DEPTOR / Fold change vs veh, DEPTOR / RFU, CPM / Fold change vs veh, CPM / RFU, DNAJB6 / Fold change vs veh, DNAJB6 / RFU, CACNA2D3 / Fold change vs veh, CACNA2D3 / RFU, DTX4 / Fold change vs veh, DTX4 / RFU, TFCP2 / Fold change vs veh, TFCP2 / RFU, GMCL1 /// GMCL1P1 / Fold change vs veh, GMCL1 /// GMCL1P1 / RFU, AEBP2 / Fold change vs veh, AEBP2 / RFU, SNHG1 /// SNORD22 /// SNORD25 /// SNORD26 /// SNORD27 /// SNORD28 /// SNORD29 /// SNORD31 / Fold change vs veh, SNHG1 /// SNORD22 /// SNORD25 /// SNORD26 /// SNORD27 /// SNORD28 /// SNORD29 /// SNORD31 / Fold change (Aza/veh), C12orf56 (ProbeSet 11735607_a_at) / Fold change (ACY-1035/veh), C12orf56 (ProbeSet 11735607_a_at) / Fold change (Aza/veh), FGFR1OP (ProbeSet 11751329_s_at) / Fold change (ACY-1035/veh), FGFR1OP (ProbeSet 11751329_s_at) / Fold change (Aza/veh), VPS36 (ProbeSet 11739960_a_at) / Fold change (ACY-1035/veh), VPS36 (ProbeSet 11739960_a_at) / RFU SYPL1 (11715823_x_at) / Fold change /veh SYPL1 (11715823_x_at) / RFU IGFBP7 (11715501_s_at) / Fold change /veh IGFBP7 (11715501_s_at) / RFU REEP3 (11722064_at) / Fold change /veh REEP3 (11722064_at) / RFU IGLL1 (11728026_x_at) / Fold change /veh IGLL1 (11728026_x_at): dose or concentration left out as unconfirmed
Conditions: MV-4-11 cells, 48 hours

In the case of `Nc1ccc(-c2cccs2)cc1NC(=O)c1ccc2c(c1)cc(C1CC1)n2CCN1CCOCC1` [ACY-1035], the “Fold change /veh TNFAIP8L3 (11732012_x_at)” value is reported as 1.18.
